The structures appear in SMILES notation. Where a SMILES comes first, the peptide text is derived from it. Bridges are numbered along the chain shown (N, C = ends). [ ]: non-standard residue; d: D form. Gly(2-naphthyl) = N[C@H](C(=O)O)c1ccc2ccccc2c1; Cit = NC(=O)NCCC[C@H](N)C(=O)O

The nature of the test: Effective concentration for antagonistic activity by inhibition of T-tropic strain of HIV-1 through its specific binding to a chemokine receptor.

Regarding `NCCCC[C@@H]1NC(=O)[C@H](CCCN=C(N)N)NC(=O)[C@H](Cc2ccc(O)cc2)NC(=O)[C@@H](NC(=O)[C@@H](NC(=O)[C@H](CCCN=C(N)N)NC(=O)[C@@H](N)CCCN=C(N)N)c2ccc3ccccc3c2)CSSC[C@@H](C(=O)N[C@@H](CCCN=C(N)N)C(=O)O)NC(=O)[C@H](CCCNC(N)=O)NC(=O)[C@H](CCCN=C(N)N)NC(=O)[C@H](Cc2ccc(O)cc2)NC(=O)[C@@H]2CCCN2C(=O)[C@@H](CCCCN)NC1=O` [Compound T140] (H-RR[Gly(2-naphthyl)]CYRK[dK]PYR[Cit]CR-OH; disulfide 4-13), the EC50 was found to be 180 pM.

Broadly, the EC50 is the concentration needed to bring the measured effect to its halfway point.

The values above are taken from BindingDB's records for doi:10.1016/s0960-894x(00)00664-8 (Kyoto University, 2001).
